Laboratory results reported in paper PMC5602078, “Rapid screening and identification of ACE inhibitors in snake venoms using at-line nanofractionation LC-MS” (Analytical and Bioanalytical Chemistry, 2017).
pIC50: −log10 of the molar value. Read-outs that look alike come from different tables or passages of the source. Where a SMILES comes first, the peptide text is derived from it. Where no end group is shown, it is not given here. [ ]: non-standard residue; d: D form. Phe(4-NO2) = N[C@@H](Cc1ccc([N+](=O)[O-])cc1)C(=O)O; pGlu = O=C1CC[C@@H](C(=O)O)N1; 2Abz = Nc1ccccc1C(=O)O

What was measured:
[1] = molecular target: T1, angiotensin-converting enzyme (ACE) from rabbit lung (Oryctolagus cuniculus, UniProt P12822); assay: ACE bioactivity assay, dose-response (concentration-response) curves of synthetic peptides; type: biochemical; set-up: angiotensin-converting enzyme (ACE) from rabbit lung; purchased Sigma-Aldrich (Zwijndrecht, The Netherlands); host or cells: rabbit lung tissue
T1 sequence (P12822 34-1310): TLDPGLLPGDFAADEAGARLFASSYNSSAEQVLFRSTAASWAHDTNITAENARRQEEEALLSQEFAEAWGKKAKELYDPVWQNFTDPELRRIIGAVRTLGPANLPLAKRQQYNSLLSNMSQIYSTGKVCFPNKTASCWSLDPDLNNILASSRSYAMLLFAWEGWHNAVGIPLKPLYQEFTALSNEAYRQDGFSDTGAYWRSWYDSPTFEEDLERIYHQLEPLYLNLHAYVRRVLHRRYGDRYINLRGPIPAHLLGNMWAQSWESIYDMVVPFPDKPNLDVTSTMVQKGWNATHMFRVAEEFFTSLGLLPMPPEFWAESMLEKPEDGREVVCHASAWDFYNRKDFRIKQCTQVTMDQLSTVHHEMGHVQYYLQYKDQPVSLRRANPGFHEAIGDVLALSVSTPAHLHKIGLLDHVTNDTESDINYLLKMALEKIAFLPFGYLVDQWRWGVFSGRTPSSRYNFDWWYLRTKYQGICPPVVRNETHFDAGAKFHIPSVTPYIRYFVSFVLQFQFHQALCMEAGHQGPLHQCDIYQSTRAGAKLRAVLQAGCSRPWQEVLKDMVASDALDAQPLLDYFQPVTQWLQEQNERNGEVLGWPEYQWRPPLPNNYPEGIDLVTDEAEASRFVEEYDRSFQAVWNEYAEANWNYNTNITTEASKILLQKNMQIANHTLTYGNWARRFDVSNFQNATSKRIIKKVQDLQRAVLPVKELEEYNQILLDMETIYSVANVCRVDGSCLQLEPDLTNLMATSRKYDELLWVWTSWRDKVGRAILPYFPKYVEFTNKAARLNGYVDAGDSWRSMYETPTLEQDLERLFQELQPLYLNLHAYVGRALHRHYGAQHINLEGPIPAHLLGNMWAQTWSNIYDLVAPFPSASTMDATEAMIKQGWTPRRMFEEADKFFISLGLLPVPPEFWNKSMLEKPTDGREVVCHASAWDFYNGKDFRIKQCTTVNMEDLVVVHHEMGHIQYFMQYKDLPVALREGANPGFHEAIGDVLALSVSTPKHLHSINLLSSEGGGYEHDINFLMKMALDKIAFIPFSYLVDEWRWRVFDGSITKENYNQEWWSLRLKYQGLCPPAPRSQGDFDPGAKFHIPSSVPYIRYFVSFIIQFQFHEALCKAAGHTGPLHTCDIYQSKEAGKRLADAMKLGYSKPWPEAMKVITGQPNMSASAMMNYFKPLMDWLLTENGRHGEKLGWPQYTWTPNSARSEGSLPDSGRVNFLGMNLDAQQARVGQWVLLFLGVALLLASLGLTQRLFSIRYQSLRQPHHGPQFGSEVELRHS
Experimental: Water was purified using a Milli-Q Plus system from Millipore (Amsterdam, The Netherlands). Acetonitrile (ACN) (ULC/MS grade) and formic acid (FA) were obtained from Biosolve (Valkenswaard, The Netherlands). […] DMSO was obtained from Riedel-de Haën (Zwijndrecht, The Netherlands).
(§1) ACE was stored at −20 °C as a 1-U/mL solution in 50% glycerol/50% 0.15 M Tris-HCl pH 8.3 supplemented with 5 mM ZnCl2. […] The assay was performed in a 0.15 M Tris-HCl buffer pH 8.3 supplemented with 0.5 M NaCl. […] This solution was then added directly to the nanofractionated plates at room temperature using a Multidrop™ 384 Reagent Dispenser (Thermo Fisher Scientific, Ermelo, The Netherlands). The final volume of the assay was 75 μL/well. The readout of the assay was fluorescence measured with a Varioskan™ Flash Multimode Reader (Thermo Fisher Scientific, Ermelo, The Netherlands) at 320 nm excitation and 420 nm emission wavelength. The measurements were performed at 37 °C after 1 h and after 2 h from the start of addition of the assay solution to the plates. Between the two time points, the plates were incubated at 37 °C. The activity of ACE in the wells was expressed as the slope of the kinetic curve that resulted from the two time point measurements. The resulting slopes were normalized and plotted in a graph versus time of each nanofraction collected using the GraphPad Prism 6 software (La Jolla, CA, USA). The slopes were normalized by dividing each slope value with the median of all the values obtained in a single measurement.
The dose-response curves of all four synthetic peptides were determined and the IC50 values for each peptide were determined in the ACE bioactivity assay.
The serial dilutions of the peptides were tested in the assay using 1 mU/mL ACE enzyme and
40 µM substrate concentration.

[2] = molecular target: T1, angiotensin-converting enzyme (ACE) from rabbit lung; type: biochemical; set-up: angiotensin-converting enzyme (ACE) from rabbit lung; purchased Sigma-Aldrich (Zwijndrecht, The Netherlands); host or cells: rabbit lung tissue; details: peptide in bioactive wells after LC nanofractionation of crude venom, sequenced by nanoLC-MS/MS
Text: Water was purified using a Milli-Q Plus system from Millipore (Amsterdam, The Netherlands). Acetonitrile (ACN) (ULC/MS grade) and formic acid (FA) were obtained from Biosolve (Valkenswaard, The Netherlands). […] DMSO was obtained from Riedel-de Haën (Zwijndrecht, The Netherlands). Most snake venoms were obtained commercially from Kentucky Reptile Zoo (USA), Ventoxin (USA), Biotoxin (USA), Venom Supplies (Tanunda, Australia), and African Reptiles & Venoms (Johannesburg, South Africa). The Boiga irregularis and Gloydius blomhoffii venoms were kind gifts from Prof. Steve Mackessy (University of Northern Colorado, USA) and Prof. Sadaaki Iwanaga (Kyushu University, Japan), respectively. Lyophilized venoms were kept at −20 °C. Prior to analysis, snake venoms were diluted in water to an end concentration of approximately 5.0 ± 0.1 mg/mL. After analysis, the samples were kept at −80 °C for later re-analysis.
Liquid chromatography separation was performed on a Shimadzu (‘s-Hertogenbosch, The Netherlands) UPLC system controlled via the Shimadzu Lab Solutions software. Sample injection was performed with a Shimadzu SIL-30AC autosampler using a 50-μL injection volume for RPLC separation and a 20-μL injection volume for HILIC separation. A gradient separation was performed on a Waters (Milford, MA) xBridge C18 column (100 × 4.6 mm; 5 μm) with an xBridge C18 guard column (10 × 4.6 mm; 5 μm) in RPLC mode. In HILIC mode, an Atlantis™ HILIC silica column (150 × 2.1 mm; 3 μm) was used. The columns were thermostated at 37 °C in a Shimadzu CTD-30A column oven. The solvent delivery was performed with two Shimadzu LC-30AD parallel pumps with 0.6 and 0.15 mL/min total flow rates for RPLC and HILIC separation, respectively. The mobile phases consisted of eluent A (98% H2O, 2% ACN, and 0.1% FA) and eluent B (98% ACN, 2% H2O, and 0.1% FA). The setup was optimized and validated in RPLC mode using the following gradient: a linear increase from 0 to 30% B in 20 min followed by 5-min isocratic elution at 30% B and a subsequent decrease to 0% B in 1 min with a 5-min equilibration time. The snake venoms screening for ACE activity was performed both in RPLC and HILIC mode. In the RPLC mode, venoms were analyzed using a 20-min linear gradient from 0 to 50% B followed by a linear increase to 90% B in 2 min and then a 2-min isocratic elution at 90% B before going back to 0% B in 1 min. The column was then equilibrated for 5 min. In the HILIC mode, separation started at 50% B and decreased linearly to 0% B in 20 min. This was followed by 4-min column washing at 0% B and a subsequent increase to 50% B in 1 min. The column was then equilibrated for 10 min. After the column, a flow split was introduced in a 1:9 ratio. The larger flow portion was directed to a Gilson 235P autosampler for 6-s nanofractionation onto black 384-well plates (Greiner Bio One, Alphen aan den Rijn, The Netherlands). The nanofractionated plates were subsequently dried in a Christ Rotational Vacuum Concentrator (Salm en Kipp, Breukelen, The Netherlands) RVC 2−33 CD plus and then stored at −20 °C until use. Ariadne, an in-house written software, was used to control the nanofractionation. The smaller flow portion was directed towards a Shimadzu SPD-M20A prominence diode array detector followed by a Waters Ultima quadrupole–time-of-flight (q–TOF) mass spectrometer equipped with an electrospray ionization (ESI) source. […]

[3] = molecular target: T1, angiotensin-converting enzyme (ACE) from rabbit lung; details: Fig. S1; for Vmax: normalized response
Experimental: as §1
In the presence of an ACE inhibitor, a drop in the basal fluorescence is detected.
This was done by performing enzyme kinetic experiments using different substrate and enzyme concentrations. In total, five different enzyme concentrations (2.5, 5, 10, 20, and 40 mU) were tested in the ACE bioactivity assay, at eight substrate concentrations (5–500 μM), in a matrix fashion. […] Therefore, the results excluding the highest concentration tested (500 μM) were fitted into a Michaelis-Menten enzyme kinetic model. […] The data presented was normalized for comparison reasons (ESM Fig. S1). […] However, when using sufficiently long incubation times, low enzyme concentrations will yield a sufficient assay window for obtaining good S/N, also in combination with much lower than the Km substrate concentrations. In practice, these assay conditions allowed for two measurement points at 1 and 2 h after the beginning of the incubation resulting in repeatable slope determination of the enzymatic product formation.

Question: How did the pIC50 [1] turn out when `CC[C@H](C)[C@H](NC(=O)[C@@H]1CCC(=O)N1)C(=O)N[C@@H](Cc1c[nH]c2ccccc12)C(=O)N1CCC[C@H]1C(=O)N[C@@H](CCCNC(=N)N)C(=O)N1CCC[C@H]1C(=O)N[C@@H](Cc1c[nH]cn1)C(=O)N[C@H](C(=O)N1CCC[C@H]1C(=O)N1CCC[C@H]1C(=O)O)C(C)C` ([pGlu]IWPRPHVPP-OH) was run?
Answer: The pIC50 was 6.00.

Question: With `CC(C)C[C@H](NC(=O)[C@@H]1CCCN1C(=O)[C@@H]1CCCN1C(=O)[C@H](CCCNC(=N)N)NC(=O)[C@@H]1CCCN1C(=O)[C@@H]1CCCN1C(=O)[C@H](Cc1c[nH]c2ccccc12)NC(=O)[C@@H]1CCCN1C(=O)[C@@H]1CCCN1C(=O)[C@H](Cc1c[nH]c2ccccc12)NC(=O)[C@@H]1CCC(=O)N1)C(=O)N1CCC[C@H]1C(=O)N1CCC[C@H]1C(=O)O` ([pGlu]WPPWPPRPPLPP-OH) as the compound, how does the pIC50 [1] read?
Answer: The pIC50 was 5.47.

Question: How did the “ACE inhibitory peptide assigned to bioactivity peak (in words)” value (from here on “ACE inhibitory peptide assigned”) [2] turn out when pEQWPPGHH(I/L)PP was run?
Answer: Its value is “ACE inhibitory peptides”.

Question: And the “ACE inhibitory peptide assigned” value ([2]; listed as peptide with m/z 1276)?
Answer: The value was “major bioactive compounds”.

Question: [pGlu]NWPRPKVPP was tested. Which “ACE inhibitory peptide assigned” value [2] did it give?
Answer: The value was “ACE inhibitory peptides”.

Question: For `Nc1ccccc1C(=O)NCC(=O)N[C@@H](Cc1ccc([N+](=O)[O-])cc1)C(=O)N1CCC[C@H]1C(=O)O` [M1100, o-Aminobenzoylglycyl-p-nitro-L-phenylalanyl-L-proline] (H-[2Abz]G[Phe(4-NO2)]P-OH), which Km ([3]; 2.5 mU ACE) is on record?
Answer: The Km was 46.8 µM.

Question: And the Vmax ([3]; 2.5 mU ACE)?
Answer: Its Vmax is 120.0.

Question: And the Km ([3]; 5 mU ACE)?
Answer: Its Km is 79.4 µM.

Question: What about the Vmax ([3]; 5 mU ACE) of the same compound?
Answer: Its Vmax is 129.3.

Question: What about the Km ([3]; 10 mU ACE) of the same compound?
Answer: Its Km is 56.3 µM.

Question: And the Vmax ([3]; 10 mU ACE)?
Answer: Its Vmax is 122.9.

Question: What about the Km ([3]; 20 mU ACE) of the same compound?
Answer: The Km was 65.9 µM.

Question: And the Vmax ([3]; 20 mU ACE)?
Answer: The Vmax was 126.5.

Question: What about the Km ([3]; 40 mU ACE) of the same compound?
Answer: The Km was 65.4 µM.

Question: And the Vmax ([3]; 40 mU ACE)?
Answer: Its Vmax is 126.6.

Question: With pE(I/L)WPRPHVPP as the compound, how does the “ACE inhibitory peptide assigned” value [2] read?
Answer: The value was “major bioactive compounds”.

Question: `CC(C)C[C@H](NC(=O)[C@@H]1CCC(=O)N1)C(=O)N[C@@H](Cc1c[nH]c2ccccc12)C(=O)N1CCC[C@H]1C(=O)N[C@@H](CCCNC(=N)N)C(=O)N1CCC[C@H]1C(=O)N[C@@H](Cc1c[nH]cn1)C(=O)N[C@H](C(=O)N1CCC[C@H]1C(=O)N1CCC[C@H]1C(=O)O)C(C)C` ([pGlu]LWPRPHVPP-OH) was tested. Which pIC50 [1] did it give?
Answer: Its pIC50 is 5.96.

Question: For pEWPPWPPRPP(I/L)PP, which “ACE inhibitory peptide assigned” value [2] is on record?
Answer: The value was “bioactive peptide”.

Question: How did the pIC50 [1] turn out when `CC[C@H](C)[C@H](NC(=O)[C@@H]1CCCN1C(=O)[C@@H]1CCCN1C(=O)[C@H](CCCNC(=N)N)NC(=O)[C@@H]1CCCN1C(=O)[C@@H]1CCCN1C(=O)[C@H](Cc1c[nH]c2ccccc12)NC(=O)[C@@H]1CCCN1C(=O)[C@@H]1CCCN1C(=O)[C@H](Cc1c[nH]c2ccccc12)NC(=O)[C@@H]1CCC(=O)N1)C(=O)N1CCC[C@H]1C(=O)N1CCC[C@H]1C(=O)O` ([pGlu]WPPWPPRPPIPP-OH; C-terminus assumed) was run?
Answer: The pIC50 was 5.46.
